From patent US5037957A, “Cysteine proteinase inhibitor” (priority 1987, dated 1991)

How the values were obtained:
papain = target: T1, papain (Carica papaya, UniProt P00784); assay type: biochemical; settings: for apparent rate constant (k'+2, second order) for inactivation of papain: 12-fold molar excess of inhibitor, papain 2×10^-8 M, pH 6.5, 22° C
T1 construct: purchased Sigma type III
T1 sequence (P00784 134-345): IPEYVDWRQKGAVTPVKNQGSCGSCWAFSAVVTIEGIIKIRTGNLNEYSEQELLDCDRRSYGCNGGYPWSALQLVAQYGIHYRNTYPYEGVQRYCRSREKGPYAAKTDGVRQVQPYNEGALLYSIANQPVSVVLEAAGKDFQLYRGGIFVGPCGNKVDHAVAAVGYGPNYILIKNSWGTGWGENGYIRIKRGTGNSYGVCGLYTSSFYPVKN
Protocol: Activity determination of papain was performed according to Barrett et al (ibid.), using Z-Phe-Arg-NHMec as substrate in 0.1M phosphate buffer, pH 6.5/1 mM DTT/1 mM EDTA at room temperature (22° C). All test dilutions were performed in 0.01% Brij 35. The reaction was started by substrate addition (20 μM final concentration) and stopped 10 minutes later by the addition of an equal volume of 0.1M NaCH2 Cl/NaAc, pH 4.3. Released fluorogen product was measured in a Perkin-Elmer MPF-43A spectrofluorimeter (excitation 360 nm, emission 460 nm) against a blank with the same contents as the test solution where chloroacetate had been added before the addition of enzyme/substrate.
The molar active concentration of the papain solution used was determined by titration with E-64 (Barrett et al., ibid.). Stock solutions (1 mM) of LVG and VG were prepared by weighing 10 μmol of the respective peptidyl diazomethyl ketone which was thereafter dissolved in 500 μl acetonitrile (LVG) or 100 μl DMSO (VG), whereupon the volumes were adjusted to 10 ml with water. The exact concentration of peptidyl diazomethyl ketone was experimentally established, such that the reaction proceeded within a reasonable time with regard to the measuring technique used. Enzyme (2×10^-8 M final concentration) and peptidyl diazomethyl ketone were mixed at zero time. 25 μl samples were withdrawn at suitable times (15 s-10 min.) and therafter immediately added to mixtures for enzyme activity determination (see above). The dilution then obtained efficiently stopped continued reaction between enzyme and peptidyl diazomethyl ketone.
Evaluation of experimental data was made in the manner described by Barret et al. (ibid.), where
When i>>e, the following equation applies to the kinetics of inactivation: [formula] where ao is enzyme activity (here measured as amount of released fluorogen product from the substrate Z-Phe-Arg-NHMec) at zero time, and at is enzyme activity at time t.
The apparent rate constant k'+2 (second order) for the inactivation in the scheme
was caculated as kobs /i.
Papain was incubated with LVG and VG in a 12-fold molar excess, and samples were withdrawn at different times for determining residual enzyme activity.

trypsin = trypsin (Bos taurus, UniProt P00760); settings: 250-fold molar excess, even after incubation for one hour
Protocol: Trypsin activity at pH 7.5 was measured at room temperature (22° C.) on samples in buffer with a final concentration of 25 mN Tris/25 mM CaCl2 The reaction was started by the addition of Bz-DL-Arg-pNA to 2.5 mN final concentration and stopped after 10 minutes by the addition of an equal volume of 50% (v/v) HAc. Released paranitroaniline was meausred spectrophotometrically (Perkin-Elmer 550S) at 405 nm. Absorbancy values for blank (HAc addition before enzyme/substrate addition) were subtracted before evaluation.

human calpain = human calpain (Homo sapiens, UniProt P07384); settings: calpain 2.5 μg/ml, 30 min at 37° C, pH 7.5
Protocol: Isolated human calpain (0.15 mg/ml) in 20 mM Tris buffer, pH 7.5/5 mM CaCl2 /6 mM dithiothreitol was supplied with a substrate (0.4% casein in 0.1 M imidazole buffer, pH 7.5/5 mM CaCl2 /6 mM dithiothreitol) and different amounts of LVG. After incubation for 30 min. at 37° C., the reaction was stopped by the addition of trichloroacetic acid to a final concentration of 2.5%, and the samples were centrifuged, whereupon the absorption of the supernatant at 280 nm was measured.

group-A streptococci [1] = settings: 0.2 mg LVG intraperitoneally 45 min after lethal dose of group-A streptococci; five mice per group; none of the five controls alive
Protocol: Ten mice were injected intraperitoneally with lethal doses of group-A streptococci. Five of them received after a period of 45 min. 0.2 mg LVG in 0.5 ml 1% dimethyl sulfoxide in physiological sterile saline by a second intraperitoneal injection.

streptococcal proteinase = streptococcal proteinase (Streptococcus pyogenes serotype M1, UniProt P0C0J1); settings: proteinase 0.0625 mg/ml, 5 min preincubation at 37° C, azocasein 15 min
Protocol: The isolated streptococcal proteinase (15 mg/ml) was diluted to 0.0625 mg/ml with 0.4M phosphate buffer, pH 6.5/4 mM EDTA/4 mM DTT and then activated by incubation at 37° C. for two hours. To a constant volume of the active streptococcal proteinase was thereafter added a constant volume of LVG solutions with increasing LVG concentration. After incubation for 5 min. at 37° C., the substrate azocasein was added and after additional incubation for exactly 15 min. at 37° C., the reaction was stopped by the addition of 20% TCA (trichloroacetic acid). The samples were centrifuged and the absorbancy of the supernatant was read at 366 nm.

group-A streptococci [2] = system: group-A streptococci
Protocol: Group-A streptococci were cultured on blood agar discs as in routine diagnosis for determining sensitivity to antibiotics. The discs applied on the culture gel and used for supplying different types of known antibiotics were this time soaked instead with 20 μl of a solution having an LVG concentration of 1 mM. […] (MIC=minimal inhibiting concentration).

Row | Substance | inhibition of papain (papain) | behaviour as substrate for papain (papain; cleaved at the glycine-glycine peptide bond) | inhibition of trypsin enzyme activity (trypsin) | final concentration of LVG giving complete inhibition of calpain (human calpain) | mice still alive after one day (group-A streptococci [1]) | LVG concentration sufficient to give total inhibition of streptococcal proteinase activity (streptococcal proteinase) | effect on bacterial growth when a molar excess of isolated streptococcal proteinase was added to the LVG solution (group-A streptococci [2]; LVG solution premixed with molar excess of streptococcal proteinase before application to cultures) | inhibition of growth of group-A streptococci on blood agar (group-A streptococci [2]; discs soaked with 20 μl of 1 mM LVG, all tested isolates and reference strains) | MIC (minimal inhibiting concentration) for group-A streptococci (group-A streptococci [2]; growth in free solution) | apparent rate constant (k'+2, second order) for inactivation of papain (papain) | effectiveness as papain inhibitor relative to VG (papain; LVG versus VG)
1 | synthetic peptide corresponding to position 4-21 in cystatin C: synthetic peptide corresponding to position 4-21 in cystatin C (synthesized on request by Ferring AB, Malmo, Sweden) (GKPPRLVGGPMDASVEEE; UniProt P01034 30-47, looked up, fragment) [reference compound] | does not at all inhibit | excellent substrate | – | – | – | – | – | – | – | – | –
2 | N-benzyloxycarbonyl-leucyl-valyl-glycine diazomethyl ketone [LVG] | – | – | no inhibition | 1 µM | five | 10 µM | no effect on the bacterial growth | effectively inhibited in growth | about 1 μg/l | 300000 M⁻¹ s⁻¹ | about 100 times
3 | N-t-butyloxycarbonyl-valyl-glycine diazomethyl ketone [VG] | – | – | no inhibition | – | – | – | – | – | – | 5000 M⁻¹ s⁻¹ | –
